In PubChem BioAssay (NCI) one finds TGI and GI50 data, which are given here for 25 molecules.

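Protocol summary: plate cells (96-well), add compound at 5 concentrations, incubate 48 h, interpolate endpoints linearly. The concentration for 50% growth inhibition is given as GI50. At the TGI there is no net growth.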 Where a SMILES comes first, the peptide text is derived from it. [ ]: non-standard residue; d: D form. 2Nal = N[CH](Cc1ccc2ccccc2c1)C(=O)O Some results are limits rather than exact numbers.

Holding throughout (assay): NCI tumour cell line growth inhibition, 48 h
Experiment [1] concerns DLD-1 colon.
For experiment [2], the system named is KM20L2 colon.
Experiment [3] has as its system RXF-631 renal.
The test system of experiment [4] is XF 498 CNS.
The test system of experiment [5] is MDA-MB-231 breast.
For experiment [6], the system named is MDA-N.
The subject of experiment [7] is P388 leukemia.
Experiment [8] relates to P388/ADR leukemia.
Experiment [9] concerns SN12K1 renal.
The subject of experiment [10] is DU-145 prostate.
Experiment [11] relates to HS 578T breast.
The test system of experiment [12] is NCI/ADR-RES ovarian.

In the case of `COC(=O)C(=O)C(C(=O)C=C(C)C)C(=O)C(=O)Nc1nc2ccc([N+](=O)[O-])cc2s1` (centres undefined), the TGI in experiment [1] and in [2] was above 100 µM each time.

In the case of `O=C(O)CCSC(=S)Nc1cccc(F)c1`, the TGI in [1] and in experiment [2] was above 100 µM each time.

In the case of `N#Cc1cc(NC(=O)c2ccccc2)c(=O)n2c1[nH]c1ccccc12`, the TGI in experiment [1], in [2], in [3] and in [4] was above 100 µM each time.

Take `Cc1ccc(/C=C(\C#N)c2ccccc2)cc1`: the TGI in experiment [1] and in experiment [2] was above 100 µM each time.

With `C=C1C(=O)OC2C1C(OC(=O)/C(C)=C\C)CC1(CO1)C1C(O)C=C(C)C21O` (centres undefined), the TGI in [1] turned out to be 7.8 µM; in [2], 10.8 µM; in experiment [3], 16.9 µM; in [4] it was 25.7 µM.

`COc1ccc(C[C@H](N)C(=O)N2C[C@@H](CO)C[C@@H](n3cnc4c(N(C)C)ncnc43)C2)cc1`: the TGI in [1] and in experiment [2] was above 100 µM each time.

Consider `COc1ccc(/C=C\c2cc(OC)c(OC)c(OC)c2)c(O)c1O`, for which the results for the GI50 in experiment [1], in experiment [2] and in experiment [4] were 1.52 µM, 26.6 µM and 2.95 µM, respectively. Besides, the TGI in [1] is above 85.8 µM; in experiment [2], 76.9 µM; in experiment [5], 18.5 µM; in experiment [6] it was below 0.0304 µM; in experiment [7], 4.57 µM; in experiment [8] it was 23.4 µM. The TGI in [9] is 1.08 µM.

Regarding `O=C(c1ccccc1)c1c(CC(O)c2ccccc2)n(C(=O)c2ccccc2)c2ccccc12` (centres undefined), the TGI in [1], in experiment [2] and in experiment [4] was above 100 µM throughout.

Take `O=C(O)CCSC(=O)Nc1ccccc1Cl`: the TGI in [1], in experiment [2], in experiment [3] and in experiment [4] was above 100 µM throughout.

As for `CN(C)CCC1(C2=CCCC2)CC/C(=C\c2ccccc2Cl)C1=O` (centres undefined), the TGI was found to be 37.4 µM in [1], 24.6 µM in experiment [2] and 28.1 µM in [3].

With `CCOC(=O)NC(=O)c1cn(CCN2CCNCC2)c(=O)[nH]c1=O`, the TGI in experiment [1] and in experiment [4] was above 100 µM in each case.

Turning to `CC(C)C(NC(=O)C(CCCCN)NC(=O)C(Cc1c[nH]c2ccccc12)NC(=O)C(Cc1ccc(O)cc1)NC(=O)C(CS)NC(=O)C(N)Cc1ccc2ccccc2c1)C(=O)NC(CS)C(=O)NC(C(N)=O)C(C)O` (centres undefined) (H-[2Nal]CYWKVCT-NH2; configuration not given here), the TGI is above 100 µM in [1]; above 12.5 µM in experiment [10]; above 12.5 µM in [11]; above 100 µM in experiment [2]; above 12.5 µM in experiment [5]; above 12.5 µM in [6]. For the same molecule, the TGI in experiment [12] was above 12.5 µM; in [3], above 100 µM; in experiment [4] it was above 100 µM.

As for `C#CCN(N=O)C(=O)NCCCC(NC(C)=O)C(=O)NCc1ccccc1` (centres undefined), the TGI was above 100 µM in [1], above 100 µM in experiment [2], above 100 µM in experiment [3] and 84.4 µM in [4].

On to `COC(=O)C(C(=O)C(=O)Nc1ccc(OC)cc1[N+](=O)[O-])c1nc2cc(C)c(C)cc2[nH]c1=O` (centres undefined), for which the TGI in experiment [1], in experiment [2] and in experiment [3] was above 100 µM each time.

On to `O=C(O)CC1CC=C[C@H]2c3cc4c(cc3C(=O)NC12)OCO4` (some centres undefined), for which the TGI in experiment [1] and in [2] was above 75 µM each time.

As for `COCOCC[C@@H]1CC=CC(NC(=O)OCc2ccccc2)C1/C=C/C(=O)CCC1OCCO1` (some centres undefined), the values for the TGI in experiment [1], in [2] and in [4] were 33.4 µM, above 93.3 µM and above 100 µM, respectively.

`Nc1ccc2c(c1)Oc1c(F)c(F)cc3c(=O)c(C(=O)O)cn-2c13`: the TGI in [1] and in [2] was above 100 µM throughout.

Turning to `Cc1nc(Nc2ccccc2)sc1C(=O)CC(=O)C(=O)NC12CC3CC(CC(C3)C1)C2`, the TGI in experiment [1], in [2] and in experiment [4] was above 100 µM each time.

With `COc1cc(CC(C(=O)O)C(=O)O)c(OC)cc1CC(C(=O)O)C(=O)O`, the TGI in experiment [1], in experiment [2] and in experiment [4] was above 100 µM in each case.

Turning to `O=C1C2ON3c4ccccc4C(=O)C3(c3ccccc3)C2C(=O)N1c1ccccc1` (centres undefined), the TGI in experiment [1], in [2] and in [4] was above 100 µM each time.

With `CN(O)C(=S)c1ccccc1`, the TGI was 4.52 µM in [1]; above 100 µM in experiment [10]; above 100 µM in experiment [11]; above 100 µM in [2]; above 24.9 µM in experiment [5]; above 20.5 µM in experiment [6]. Further, the figures for the TGI in experiment [12], in experiment [3] and in [4] were 7.88 µM, 2.92 µM and above 100 µM, respectively.

Take `Nc1nc(N)c(N=Nc2ccc(C(=O)O)c(O)c2)c(N)n1`: the TGI in experiment [10], in [11], in [5], in experiment [6] and in experiment [12] was above 100 µM in each case.

The molecule `CCCCCCCCCCCCCC(=O)OCC1OC(n2cc(F)c(=O)[nH]c2=O)C(N)C(OC(=O)CCCCCCCCCCCCC)C1O` (centres undefined) showed a TGI in experiment [2] above 100 µM.

`OC1CCC[C@@H]1Sc1ccccc1` (some centres undefined): the TGI in experiment [1], in [2], in experiment [3] and in experiment [4] was above 100 µM throughout.

Regarding `CC1CC(C)C2=NOS3=C2C1=NO3` (centres undefined), the TGI in experiment [10], in experiment [11], in experiment [5], in experiment [6] and in experiment [12] was above 100 µM throughout.
